Patent publication US6787525B1, “Glyceryl nucleotides, method for the production thereof and their use” (priority 1998, dated 2004)

Tests used:
SW-620 = assay: In vitro cytostatic effect (SRB): SW-620, Intestinal cancer
OVCAR-8 = assay: In vitro cytostatic effect (SRB): OVCAR-8, Ovarian cancer
SF-295 = assay: In vitro cytostatic effect (SRB): SF-295, Cancer of the central nervous system
U251 = assay: In vitro cytostatic effect (SRB): U251, Cancer of the central nervous system
HCT-116 = assay: In vitro cytostatic effect (SRB): HCT-116, Intestinal cancer
K-562 = assay: In vitro cytostatic effect (SRB): K-562, Leukemia
SK-MEL-28 = assay: In vitro cytostatic effect (SRB): SK-MEL-28, Melanoma
768-0 = assay: In vitro cytostatic effect (SRB): 768-0, Kidney cancer
EKVX = assay: In vitro cytostatic effect (SRB): EKVX, Lung cancer; conditions: 48-hour incubation
M14 = assay: In vitro cytostatic effect (SRB): M14, Melanoma
IGROV1 = assay: In vitro cytostatic effect (SRB): IGROV1, Ovarian cancer
PC-3 = assay: In vitro cytostatic effect (SRB): PC-3, Prostate cancer
SF-539 = assay: In vitro cytostatic effect (SRB): SF-539, Cancer of the central nervous system
SNB-19 = assay: In vitro cytostatic effect (SRB): SNB-19, Cancer of the central nervous system
HT29 = assay: In vitro cytostatic effect (SRB): HT29, Intestinal cancer
DU-145 = assay: In vitro cytostatic effect (SRB): DU-145, Prostate cancer
ACHN = assay: In vitro cytostatic effect (SRB): ACHN, Kidney cancer
NCI-H460 = assay: In vitro cytostatic effect (SRB): NCI-H460, Lung cancer
SK-OV-3 = assay: In vitro cytostatic effect (SRB): SK-OV-3, Ovarian cancer
UACC-62 = assay: In vitro cytostatic effect (SRB): UACC-62, Melanoma
HS 578T = assay: In vitro cytostatic effect (SRB): HS 578T, Breast cancer
MDA-MB-435 = assay: In vitro cytostatic effect (SRB): MDA-MB-435, Breast cancer
NCI-H522 = assay: In vitro cytostatic effect (SRB): NCI-H522, Lung cancer
T-47D = assay: In vitro cytostatic effect (SRB): T-47D, Breast cancer
MDA-MB-231/ATCC = assay: In vitro cytostatic effect (SRB): MDA-MB-231/ATCC, Breast cancer
NCI-H23 = assay: In vitro cytostatic effect (SRB): NCI-H23, Lung cancer
HOP-62 = assay: In vitro cytostatic effect (SRB): HOP-62, Lung cancer
[1] = read-out: LC50, 48-hour incubation

`Nc1ccn(C2CCC(COP(=O)(O)OCC(O)COP(=O)(O)OCC3OC(n4cc(F)c(=O)[nH]c4=O)CC3O)O2)c(=O)n1` (racemic) [NSC 704533, 2′,3′-didesoxycytidylyl-(5′→1)-racglycerylyl-(3→5′)-5-fluoro-2′-desoxyuridine] was tested. Which GI50 (HL-60(TB); Leukemia, 48-hour incubation) did it give?
Its GI50 is 0.0715 µM.

And the TGI (HL-60(TB); Leukemia, 48-hour incubation)?
The TGI was greater than 1.00E − 04 mol/l.

And the CC50 (HL-60(TB); read-out: LC50, Leukemia, 48-hour incubation)?
The CC50 was greater than 100 µM.

What about the GI50 (SW-620; 48-hour incubation) of the same molecule?
The GI50 was greater than 100 µM.

And the TGI (SW-620; 48-hour incubation)?
Its TGI is greater than 1.00E − 04 mol/l.

What about the CC50 (SW-620; [1]) of the same molecule?
Its CC50 is greater than 100 µM.

What about the GI50 (OVCAR-8; 48-hour incubation) of the same molecule?
Its GI50 is 0.141 µM.

What about the TGI (OVCAR-8; 48-hour incubation) of the same molecule?
The TGI was greater than 1.00E − 04 mol/l.

And the CC50 (OVCAR-8; [1])?
Its CC50 is greater than 100 µM.

What about the GI50 (SF-295; 48-hour incubation) of the same molecule?
Its GI50 is 0.0345 µM.

And the TGI (SF-295; 48-hour incubation)?
The TGI was greater than 1.00E − 04 mol/l.

What about the CC50 (SF-295; [1]) of the same molecule?
Its CC50 is greater than 100 µM.

And the GI50 (U251; 48-hour incubation)?
Its GI50 is 1.26 µM.

What about the TGI (U251; 48-hour incubation) of the same molecule?
The TGI was greater than 1.00E − 04 mol/l.

What about the CC50 (U251; [1]) of the same molecule?
The CC50 was greater than 100 µM.

And the GI50 (HCT-116; 48-hour incubation)?
Its GI50 is 0.374 µM.

And the TGI (HCT-116; 48-hour incubation)?
The TGI was greater than 1.00E − 04 mol/l.

And the CC50 (HCT-116; [1])?
Its CC50 is greater than 100 µM.

And the GI50 (K-562; 48-hour incubation)?
Its GI50 is 2.57 µM.

What about the TGI (K-562; 48-hour incubation) of the same molecule?
Its TGI is greater than 1.00E − 04 mol/l.

And the CC50 (K-562; [1])?
Its CC50 is greater than 100 µM.

What about the GI50 (SK-MEL-28; 48-hour incubation) of the same molecule?
Its GI50 is 37.9 µM.

And the TGI (SK-MEL-28; 48-hour incubation)?
Its TGI is greater than 1.00E − 04 mol/l.

What about the CC50 (SK-MEL-28; [1]) of the same molecule?
The CC50 was greater than 100 µM.

And the GI50 (768-0; 48-hour incubation)?
The GI50 was greater than 100 µM.

What about the TGI (768-0; 48-hour incubation) of the same molecule?
The TGI was greater than 1.00E − 04 mol/l.

What about the CC50 (768-0; [1]) of the same molecule?
The CC50 was greater than 100 µM.

And the GI50 (EKVX)?
Its GI50 is greater than 100 µM.

What about the TGI (EKVX) of the same molecule?
The TGI was greater than 1.00E − 04 mol/l.

What about the GI50 (M14; 48-hour incubation) of the same molecule?
Its GI50 is 0.203 µM.

And the TGI (M14; 48-hour incubation)?
Its TGI is greater than 1.00E − 04 mol/l.

What about the CC50 (M14; [1]) of the same molecule?
The CC50 was greater than 100 µM.

And the GI50 (IGROV1; 48-hour incubation)?
The GI50 was 68 µM.

And the TGI (IGROV1; 48-hour incubation)?
Its TGI is greater than 1.00E − 04 mol/l.

And the CC50 (IGROV1; [1])?
The CC50 was greater than 100 µM.

And the GI50 (PC-3; 48-hour incubation)?
The GI50 was 2.28 µM.

And the TGI (PC-3; 48-hour incubation)?
The TGI was greater than 1.00E − 04 mol/l.

What about the CC50 (PC-3; [1]) of the same molecule?
The CC50 was greater than 100 µM.

What about the GI50 (SF-539; 48-hour incubation) of the same molecule?
The GI50 was 0.0216 µM.

And the TGI (SF-539; 48-hour incubation)?
The TGI was greater than 1.00E − 04 mol/l.

And the CC50 (SF-539; [1])?
The CC50 was greater than 100 µM.

And the GI50 (SNB-19; 48-hour incubation)?
Its GI50 is 0.25 µM.

And the TGI (SNB-19; 48-hour incubation)?
Its TGI is greater than 1.00E − 04 mol/l.

What about the CC50 (SNB-19; [1]) of the same molecule?
Its CC50 is greater than 100 µM.

What about the GI50 (HT29; 48-hour incubation) of the same molecule?
Its GI50 is 1.88 µM.

And the TGI (HT29; 48-hour incubation)?
Its TGI is greater than 1.00E − 04 mol/l.

And the CC50 (HT29; [1])?
Its CC50 is greater than 100 µM.

And the GI50 (DU-145; 48-hour incubation)?
Its GI50 is 0.158 µM.

What about the TGI (DU-145; 48-hour incubation) of the same molecule?
Its TGI is greater than 1.00E − 04 mol/l.

What about the CC50 (DU-145; [1]) of the same molecule?
The CC50 was greater than 100 µM.

What about the GI50 (ACHN; 48-hour incubation) of the same molecule?
The GI50 was less than 0.01 µM.

And the TGI (ACHN; 48-hour incubation)?
The TGI was greater than 1.00E − 04 mol/l.

And the CC50 (ACHN; [1])?
The CC50 was greater than 100 µM.

And the GI50 (NCI-H460; 48-hour incubation)?
The GI50 was less than 0.01 µM.

And the TGI (NCI-H460; 48-hour incubation)?
The TGI was greater than 1.00E − 04 mol/l.

What about the CC50 (NCI-H460; [1]) of the same molecule?
The CC50 was greater than 100 µM.

And the GI50 (SK-OV-3; 48-hour incubation)?
Its GI50 is 44.3 µM.

And the TGI (SK-OV-3; 48-hour incubation)?
The TGI was greater than 1.00E − 04 mol/l.

And the CC50 (SK-OV-3; [1])?
Its CC50 is greater than 100 µM.

And the GI50 (UACC-62; 48-hour incubation)?
The GI50 was 0.55 µM.

And the TGI (UACC-62; 48-hour incubation)?
The TGI was greater than 1.00E − 04 mol/l.

What about the CC50 (UACC-62; [1]) of the same molecule?
Its CC50 is greater than 100 µM.

What about the GI50 (HS 578T; 48-hour incubation) of the same molecule?
Its GI50 is 0.732 µM.

And the TGI (HS 578T; 48-hour incubation)?
The TGI was greater than 1.00E − 04 mol/l.

What about the CC50 (HS 578T; [1]) of the same molecule?
The CC50 was greater than 100 µM.

What about the GI50 (MDA-MB-435; 48-hour incubation) of the same molecule?
Its GI50 is 4.76 µM.

And the TGI (MDA-MB-435; 48-hour incubation)?
The TGI was greater than 1.00E − 04 mol/l.

What about the CC50 (MDA-MB-435; [1]) of the same molecule?
Its CC50 is greater than 100 µM.

And the GI50 (NCI-H522; 48-hour incubation)?
Its GI50 is 0.746 µM.

What about the TGI (NCI-H522; 48-hour incubation) of the same molecule?
Its TGI is greater than 1.00E − 04 mol/l.

What about the CC50 (NCI-H522; [1]) of the same molecule?
Its CC50 is greater than 100 µM.

And the GI50 (T-47D; 48-hour incubation)?
Its GI50 is 1.42 µM.

What about the TGI (T-47D; 48-hour incubation) of the same molecule?
Its TGI is greater than 1.00E − 04 mol/l.

What about the CC50 (T-47D; [1]) of the same molecule?
The CC50 was greater than 100 µM.

And the GI50 (MDA-MB-231/ATCC; 48-hour incubation)?
The GI50 was 95.5 µM.

And the TGI (MDA-MB-231/ATCC; 48-hour incubation)?
Its TGI is greater than 1.00E − 04 mol/l.

And the CC50 (MDA-MB-231/ATCC; [1])?
Its CC50 is greater than 100 µM.

What about the GI50 (NCI-H23; 48-hour incubation) of the same molecule?
Its GI50 is 0.0979 µM.

What about the TGI (NCI-H23; 48-hour incubation) of the same molecule?
Its TGI is greater than 1.00E − 04 mol/l.

And the CC50 (NCI-H23; [1])?
Its CC50 is greater than 100 µM.

And the GI50 (HOP-62; 48-hour incubation)?
The GI50 was 0.902 µM.

What about the TGI (HOP-62; 48-hour incubation) of the same molecule?
The TGI was greater than 1.00E − 04 mol/l.

What about the CC50 (HOP-62; [1]) of the same molecule?
Its CC50 is greater than 100 µM.
